Measured values: PMC3994528, “GE23077 binds to the RNA polymerase ‘i’ and ‘i+1’ sites and prevents the binding of initiating nucleotides” (eLife, 2014)
Where two headings read alike, the source gives them in different places.

Assays:
E. coli D21f2tolC = experiment: Resistance and cross-resistance levels, rpoB mutants from saturation mutagenesis (plasmid-borne), broth microdilution; type: cell-based, Escherichia coli
[1] = target: T1, E. coli RNAP holoenzyme ([F^517]σ^70-RNAP holoenzyme) (Escherichia coli, UniProt P0A8T7+P0A8V2); experiment: Fluorescence-detected RNAP-Rif interaction assay; type: binding; conditions: for Kd: calculated as koff/kon
T1 construct: made in house
Description: RNAP-Rif interaction assays were performed as in [Feklistov et al. (2008)]. The assays monitored the quenching of the fluorescence emission of fluorescein incorporated into RNAP holoenzyme at σ^70 residue 517 (serving as a fluorescence-resonance-energy-transfer donor) by the naphthyl moiety of Rif (serving as a fluorescence-resonance-energy-transfer acceptor; [Knight et al., 2005]; [Feklistov et al., 2008]). Fluorescence measurements were performed using a QuantaMaster QM1 spectrofluorometer (PTI, Edison, NJ) (excitation wavelength = 480 nm; emission wavelength = 530 nm; and excitation and emission slit widths = 5 nm).
For determination of association kinetics, 720 μl 2 nM [F^517]σ^70-RNAP holoenzyme and 0-2 μM GE in 40 mM Tris–HCl, pH 8.0, 100 mM NaCl, 10 mM MgCl2, 1 mM DTT, 0.02% Tween-20, and 5% glycerol was incubated 15 min at 24°C and then mixed with 30 μl 0.01–0.5 μM Rif in the same buffer at 24°C in a cuvette chamber with a mixing dead time ∼0.5 s, and fluorescence emission intensities were monitored for 30 min at 24°C. On-rates for RNAP-Rif interaction, kon, were calculated by fitting data to: I=(I0−I∞)exp(−kobst)+I∞ where kobs is the observed association rate constant at a specified Rif concentration, I is the fluorescence emission intensity at time t, Io is the fluorescence emission intensity at t = 0, and I∞ is the fluorescence emission intensity at t = ∞; followed by fitting the Rif-concentration-dependence of kobs to: kobs=kon[Rif]+koff where koff is ≥0 but is otherwise unconstrained.
Off-rates for RNAP-Rif interaction, koff, were calculated as: I=I0+(I∞−I0)[1−exp(−kofft)] where I is the fluorescence emission intensity at time t, Io is the fluorescence intensity at t = 0, and I∞ is the fluorescence intensity at t = ∞.
Equilibrium dissociation constants for RNAP-Rif interaction, Kd, were calculated as koff/kon.
The equilibrium dissociation constant for RNAP-GE interaction, Ki, was calculated from the association-kinetics data, by fitting the GE-concentration-dependence of I∞ to: I∞=(I∞,max[GE])/(Ki+[GE])

E. coli RNAP holoenzyme [2] = target: T2, E. coli RNAP holoenzyme (Escherichia coli, UniProt P0A8T7+P0A8V2); type: biochemical; conditions: 0.5 μM GE or 2.2 μM Rif; lacUV5(ICAP) promoter
E. coli RNAP holoenzyme [3] = target: T2, E. coli RNAP holoenzyme; type: biochemical; conditions: 0.5 μM GE or 2.2 μM Rif; ApA primer and UTP
E. coli RNAP holoenzyme [4] = target: T2, E. coli RNAP holoenzyme; type: biochemical; conditions: halted TEC containing 29 nt RNA product
[Asn516]β-RNAP = [Asn516]β-RNAP (Escherichia coli, UniProt P0A8T7+P0A8V2, D516N); experiment: biochemical; type: biochemical
Escherichia coli RNAP = Escherichia coli RNAP (Escherichia coli, UniProt P0A8T7+P0A8V2); experiment: biochemical; type: biochemical; conditions: wild-type RNAP; at the limit of detection of the assay
[Asp565]β-RNAP = [Asp565]β-RNAP (Escherichia coli, UniProt P0A8T7+P0A8V2, E565D); type: biochemical
[5] = target: [F^517]σ^70-RNAP holoenzyme (E. coli RNAP holoenzyme labelled with fluorescein at σ^70 residue 517), wild-type RNAP (E. coli) (UniProt P0A8V2); experiment: other fluorescence titration
GE23077 = experiment: partial-competitive binding of GE and Rif: association kinetics for Rif (fluorescence intensity of fluorescein-labelled RNAP holoenzyme); conditions: 2000 nM GE
[6] = rpoB 565 Glu→Asp, GE^R mutant from saturation mutagenesis
[7] = rpoB 566 Gly→Arg, GE^R mutant from saturation mutagenesis
[8] = rpoB 566 Gly→Cys, GE^R mutant from saturation mutagenesis
[9] = rpoB 566 Gly→Ser, GE^R mutant from saturation mutagenesis
[10] = rpoB 684 Asn→Lys, GE^R mutant from saturation mutagenesis
[11] = rpoB 684 Asn→Thr, GE^R mutant from saturation mutagenesis
[12] = wild-type control of the saturation-mutagenesis mutants, E. coli D21f2tolC

| Compound | resistance / cross-resistance level (MIC/MICwild-type) (E. coli D21f2tolC; [6]) | resistance / cross-resistance level (MIC/MICwild-type) (E. coli D21f2tolC; [7]) | resistance / cross-resistance level (MIC/MICwild-type) (E. coli D21f2tolC; [8]) | resistance / cross-resistance level (MIC/MICwild-type) (E. coli D21f2tolC; [9]) | resistance / cross-resistance level (MIC/MICwild-type) (E. coli D21f2tolC; [10]) | resistance / cross-resistance level (MIC/MICwild-type) (E. coli D21f2tolC; [11]) | MICwild-type (E. coli D21f2tolC; [12]) | further results |
| --- | --- | --- | --- | --- | --- | --- | --- | --- |
| CCC/C(C)=C/C=C(\C)C(=O)c1c(O)cc([C@H](C)CC/C=C/NC(=O)OC)oc1=O (racemic) [Myx, (±)E,E-myxopyronin B] | 1 | 1 | 1 | 1 | 1 | 1 | 0.098 µg/mL |  |
| ONC(=Nc1ccccc1)c1cccc(C(F)(F)F)c1 [CBR703] | 1 | 1 | 1 | 1 | 1 | 2 | 6.25 µg/mL |  |
| CO[C@H]1/C=C/O[C@@]2(C)Oc3c(C)c(O)c4c(O)c(c(/C=N/N5CCN(C)CC5)c(O)c4c3C2=O)NC(=O)/C(C)=C\C=C\[C@H](C)[C@H](O)[C@@H](C)[C@@H](O)[C@@H](C)[C@H](OC(C)=O)[C@@H]1C [Rif, Rifampin] |  |  |  |  |  |  |  | cross-resistance of GE^R mutants to other RNAP inhibitors (E. coli D21f2tolC; GE^R mutants): do not exhibit cross-resistance; resistance / cross-resistance level (MIC/MICwild-type) (E. coli D21f2tolC; {}): 1; Kd ([1]; absence of GE): 0.0004 µM; Kd ([1]; presence of saturating GE (2000 nM)): 0.03 µM; koff ([1]; read-out: koff for Rif, 0 nM GE, Figure 6-figure supplement 1): 0.00019 s⁻¹; koff ([1]; read-out: koff for Rif, absence of GE, Figure 6C): 0.0002 s⁻¹; kon ([1]; read-out: kon for Rif, 0 nM GE, Figure 6-figure supplement 1 (condition assigned by comparison with Figure 6C)): 520000 M⁻¹ s⁻¹; kon ([1]; read-out: kon for Rif, absence of GE, Figure 6C): 500000 M⁻¹ s⁻¹; inhibition of formation of RNAP-promoter open complex (RPo) (E. coli RNAP holoenzyme [2]): does not inhibit formation of RPo; inhibition of first nucleotide addition, primer-dependent transcription initiation (E. coli RNAP holoenzyme [3]): does not generally inhibit the first nucleotide-addition step in transcription initiation; inhibition of nucleotide addition in transcription elongation, halted elongation complex (E. coli RNAP holoenzyme [4]): does not inhibit nucleotide addition in transcription elongation; MICwild-type: 0.2 µg/mL |
| CO[C@H]1/C=C/O[C@@]2(C)Oc3c(C)c(O)c4c(O)c(cc(O)c4c3C2=O)NC(=O)/C(C)=C\C=C\[C@H](C)[C@H](O)[C@@H](C)[C@@H](O)[C@@H](C)[C@H](OC(C)=O)[C@@H]1C [RifSV, rifamycin SV] |  |  |  |  |  |  |  | IC50 ([Asn516]β-RNAP): 10 µM |
| CO[C@H]1/C=C/O[C@@]2(C)Oc3c(C)c(O)c4c(O)c(c(NC(C)C(C)C(=O)NC[C@H]5NC(=O)CNC(=O)[C@H](O)CNC(=O)[C@@H]([C@@H](C)O)NC(=O)[C@H]([C@@H](O)[C@H](O)C(N)=O)NC(=O)[C@@H](C(C)C)NC(=O)[C@@H](CO)NC5=O)c(O)c4c3C2=O)NC(=O)/C(C)=C\C=C\[C@H](C)[C@H](O)[C@@H](C)[C@@H](O)[C@@H](C)[C@H](OC(C)=O)[C@@H]1C (stereo partly drawn) [RifaGE-3, {[α-descarboxy-Ama]GE}-NH-{RifSV}] |  |  |  |  |  |  |  | IC50 (Escherichia coli RNAP): ≤ 0.04 µM; fold more potent than GE in inhibition of GE^R RNAP ([Asp565]β-RNAP): > 2500 fold; fold more potent than RifSV in inhibition of Rif^R RNAP ([Asn516]β-RNAP): 50 fold; IC50 ([Asn516]β-RNAP; Rif-resistant RNAP [Asn516]β-RNAP, read-out: IC50): 0.2 µM |
| CNC(=O)[C@@H](C)[C@H]1C(=O)/C(=C(O)/C=C/C(C)=C/[C@@H](C)[C@H]2O[C@@]3(C)O[C@H](C=C[C@@]34CO4)[C@@H]2C)C(=O)N1[C@@H]1CC[C@H](O)[C@H](C)O1 [Stl, streptolydigin] |  |  |  |  |  |  |  | MICwild-type (E. coli D21f2tolC; {}): 0.78 µg/mL; resistance / cross-resistance level (MIC/MICwild-type) (E. coli D21f2tolC; {}): 1 |
| GE23077 (peptide) |  |  |  |  |  |  |  | Ki [5]: 0.006 µM |
| Lipiarmycin [Lpm] | 1 | 1 | 1 | 1 | 1 | 1 | 0.78 µg/mL |  |
| Sorangicin | 1 | 1 | 1 | 1 | 1 | 1 | 1.56 µg/mL |  |
| [F^517]σ^70-RNAP holoenzyme (E. coli RNAP holoenzyme labelled with fluorescein at σ^70 residue 517), wild-type RNAP (from UniProt P0A8V2;P0A8T7;P00579) [Asp565]β |  |  |  |  |  |  |  | Ki (GE23077): > 2 µM |
| [F^517]σ^70-RNAP holoenzyme (E. coli RNAP holoenzyme labelled with fluorescein at σ^70 residue 517), wild-type RNAP (from UniProt P0A8V2;P0A8T7;P00579) [Lys684]β |  |  |  |  |  |  |  | Ki (GE23077): > 2 µM |
